# Activity calls are given as the source filed them.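 The calls were made as follows: active = a tumor-causing dose value with its tumor site reported for any sex and species group of a rodent or other animal cancer study; inconclusive = only studies judged inadequate by the national testing program; inactive = tested in at least one study, none positive.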
# Assay: DSSTox (CPDBAS) Carcinogenic Potency Database Summary SingleCellCall Results
# Details: animal chronic carcinogenicity bioassays, CPDB summary call
# In short: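 Categorical carcinogenicity call compiled from published chronic rodent and other animal cancer bioassays; based on the most positive result across experiments for each sex-species, assigned on minimal evidence for or against activity.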
row,SMILES,outcome
1,O=S1(=O)CCCO1,active
2,CN1CCCC1=O,active
3,N=C1C=CC(=C(c2ccc(N)cc2)c2ccc(N)cc2)C=C1,active
4,O=C1c2ccccc2CN2C(=O)c3ccccc3CN12,active
5,NCC1(CC(=O)O)CCCCC1,active
6,ClCC(Br)CBr (stereo not given),active
7,Clc1cccc(-c2cc(Cl)cc(Cl)c2)c1,active
8,CCC[CH2][Sn]([CH2]CCC)([O]C(C)=O)[O]C(C)=O,inactive
9,CCCCNNCCCC,active; inactive
10,O=NN1CCOC1,active; inactive
11,O=C(O)C(Cl)(Cl)Cl,active
12,CCCCCCCCCCC(C)c1ccc(S(=O)(=O)O)cc1 (stereo not given),inactive
13,C[C@]12CC[C@@H]3c4ccc(O)cc4CC[C@H]3[C@@H]1CC[C@@H]2O,inactive
14,CCCCCN(N=O)C(N)=O,active
15,C=CC(OC(C)=O)c1ccc2c(c1)OCO2 (stereo not given),active
16,Cn1c(=O)c2c(ncn2C)n(C)c1=O,inactive
17,O=C1c2ccccc2C(=O)c2c(O)c(O)cc(O)c21,active
18,O=C(O)[C@@H]1[C@H](C(=O)O)[C@@]2(Cl)C(Cl)=C(Cl)[C@]1(Cl)C2(Cl)Cl,active
19,FC(Cl)(Cl)Cl,inactive; active
20,COc1cc2c(c3oc(=O)c4c(c13)CCOC4=O)C1C=COC1O2 (stereo not given),active
21,CCc1cccc2c3c([nH]c12)C(CC)(CC(=O)O)OCC3 (stereo not given),inactive
22,O=C1C=C2C(=CCOC2O)O1 (stereo not given),inactive
23,NC(=O)N/N=C/c1ccc([N+](=O)[O-])o1,active
24,Cc1ccc(N=C=O)cc1N=C=O,active; inactive
25,O=NN1CCC[C@H]1C(=O)O,inactive
26,O=NN1CN2CN(C1)CN(N=O)C2,inactive

row,SMILES,outcome
1,COc1nn(CSP(=S)(OC)OC)c(=O)s1,active
2,CCCCCCCN,inactive
3,CN(C)C(=O)Cl,active
4,C=CCN(CC(C)O)N=O (stereo not given),active
5,OC[C@H]1O[C@@](CO)(O[C@H]2O[C@H](CO)[C@@H](O)[C@H](O)[C@H]2O)[C@@H](O)[C@@H]1O,inactive
6,CC(/C=C/C=C(\C)C(=O)O[C@@H]1O[C@H](CO[C@@H]2O[C@H](CO)[C@@H](O)[C@H](O)[C@H]2O)[C@@H](O)[C@H](O)[C@H]1O)=C\C=C\C=C(C)\C=C\C=C(/C)C(=O)O[C@@H]1O[C@H](CO[C@@H]2O[C@H](CO)[C@@H](O)[C@H](O)[C@H]2O)[C@@H](O)[C@H](O)[C@H]1O,inactive
7,ClC(Cl)=C(c1ccc(Cl)cc1)c1ccc(Cl)cc1,active
8,OC(c1ccc(Cl)cc1)(c1ccc(Cl)cc1)C(Cl)(Cl)Cl,active
9,FC(Cl)C(F)(F)F (stereo not given),inactive
10,C/C=C(/C)C(=O)O[C@H]1CCN2CC=C(COC(=O)[C@](O)([C@H](C)OC)C(C)(C)O)[C@H]12,active
11,ClC/C=C/CCl,active; inactive
12,CC(N)=S,active
13,CC(=O)CN(CC(O)CO)N=O (stereo not given),active
14,CCCCN(N)CCCC,active
15,ClC(Cl)(Cl)C(Cl)(Cl)Cl,active
16,O=S(=O)(c1ccc(Cl)cc1)c1ccc(Cl)cc1,inactive; active
17,CC1CC(=O)O1 (stereo not given),active
18,O=[As](O)(O)O,inactive
19,CCOP(=S)(OCC)Oc1cc(C)nc(C(C)C)n1,inactive; active
20,CC(=O)O[C@@H]1[C@@H](O)C2OC3C=C(C)C(=O)C(O)[C@@]3(CO)[C@]1(C)[C@]21CO1 (stereo not given in full),inactive
21,CC1(C)[C@H](C(=O)O[C@H](C#N)c2cccc(Oc3ccccc3)c2)[C@@H]1C=C(Br)Br,inactive
22,CC(O)CN(CCO)N=O (stereo not given),active
23,CC(C)NCC(O)COc1ccc(CC(N)=O)cc1 (stereo not given),inactive; active
24,COC(C)(C)C,active
25,Cc1c(N(C)CS(=O)(=O)O)c(=O)n(-c2ccccc2)n1C,active
26,C=C(F)F,inactive

row,SMILES,outcome
1,C=CC#N,active
2,COc1ccc(CCN2CCC(Nc3nc4ccccc4n3Cc3ccc(F)cc3)CC2)cc1,inactive
3,ClCOCCCCCCOCCl,inactive
4,CCCN(N=O)C(N)=O,active
5,N#CS,inactive
6,O=NN1CCCCCC1,active
7,CNC(=O)Oc1cccc2ccccc12,active
8,CCN(CC)C(=S)S[Te](SC(=S)N(CC)CC)(SC(=S)N(CC)CC)SC(=S)N(CC)CC,inactive
9,O=C1C(Cl)=C(Cl)C(=O)C(Cl)=C1Cl,inactive
10,Nc1ccc(NC(=O)c2ccc(N)cc2)cc1,inactive; active
11,CN(N=O)c1ccc(F)cc1,active
12,Cc1ccccc1N,active
13,CCCCCCCC(=O)OCC(COC(=O)CCCCCCC)OC(=O)CCCCCCC,active
14,O=C(OOC(=O)c1ccccc1)c1ccccc1,inactive
15,C1C2OC2C2C1C1CC2C2OC12 (stereo not given),inactive
16,O=C1N(CCO)CCN1/N=C/c1ccc([N+](=O)[O-])o1,active
17,O=S(=O)(O)NC1CCCCC1,active
18,ClC1=C(Cl)[C@@]2(Cl)[C@@H]3[C@@H](Cl)[C@H](Cl)C[C@@H]3C1(Cl)C2(Cl)Cl,active
19,C1COCCO1,active; inactive
20,CC(C)C/C=N/N(C)C=O,active
21,CCN(CC)C(C)=O,active
22,O=NN1CCCCC1c1cccnc1 (stereo not given),active
23,CCCCCCCCCC[N+](C)(C)[O-],inactive
24,CC(O)CNCC(C)O (stereo not given),inactive
25,ClCCCl,active
26,C#C[C@]1(OC(C)=O)CC[C@H]2[C@@H]3CCC4=CC(=O)CC[C@@H]4[C@H]3CC[C@@]21C,active

row,SMILES,outcome
1,S=C=NCCc1ccccc1,inactive; active
2,CN(N=O)c1cccnc1,inactive
3,CN(N=O)C(N)=O,active; inactive
4,CCS(=O)(=O)c1ccc(S(N)(=O)=O)c2ccccc12,active
5,c1ccoc1,active; inactive
6,CC(=O)Nc1cccc2c1Cc1ccccc1-2,inactive; active
7,C1CCCNCCC1,inactive
8,CNC(=O)c1c(N(C)N=O)ncn1C,active
9,CN(C)c1ccc(N=NS(=O)(=O)O)cc1,inactive
10,CN(C)C=O,inactive; active
11,O=NN1CCCC1c1cccnc1 (stereo not given),active
12,CCCCC(C)(O)C/C=C/[C@H]1[C@H](O)CC(=O)[C@@H]1CCCCCCC(=O)OC (stereo not given in full),inactive; active
13,CC1CN1P(=O)(N1CC1C)N1CC1C (stereo not given),active
14,O=C(O)c1[nH]n(-c2ccc(S(=O)(=O)O)cc2)c(=O)c1N=Nc1ccc(S(=O)(=O)O)cc1,inactive
15,NC(=O)Cc1cccc2ccccc12,inactive; active
16,NC(CCC(=O)O)C(=O)O (stereo not given),inactive; active
17,c1ccc(Nc2ccc3ccccc3c2)cc1,inactive
18,C[C@H](CCc1ccccc1)NC[C@H](O)c1ccc(O)c(C(N)=O)c1,inactive
19,O=C(O)CC(O)(CC(=O)O)C(=O)O,inactive
20,C/C=C/Cl,active
21,CC[C@H](OC(C)=O)C(C[C@H](C)N(C)C)(c1ccccc1)c1ccccc1,active
22,OC[C@@H](O)[C@@H](O)[C@H](O)[C@H](O)CO,inactive
23,O=C(O)CCCc1ccc(N(CCCl)CCCl)cc1,active
24,CC(Cl)(Cl)Cl,inactive
25,Cc1c(COC(=O)C2C(/C=C(\Cl)C(F)(F)F)C2(C)C)cccc1-c1ccccc1 (stereo not given),inactive; active
26,Nc1cc([N+](=O)[O-])ccc1C(=O)O,inactive

row,SMILES,outcome
1,CCOc1ccc(NC(C)=O)cc1N,active
2,NNCc1ccccc1,active
3,CCCN(CCC)c1c([N+](=O)[O-])cc(C(F)(F)F)cc1[N+](=O)[O-],active
4,CNC(=S)N(C)C,active
5,O=NN(CC(F)(F)F)CC(F)(F)F,inactive
6,NNCCc1ccccc1,active
7,OCCOCCOCCO,inactive
8,Cc1ncc([N+](=O)[O-])n1C,active
9,O=C(O)C(Cl)Cl,active; inactive
10,CC[C@H]1OC(=O)[C@H](C)[C@@H](O[C@H]2C[C@@](C)(OC)[C@@H](O)[C@H](C)O2)[C@H](C)[C@@H](O[C@@H]2O[C@H](C)C[C@H](N(C)C)[C@H]2O)[C@](C)(O)C[C@@H](C)C(=O)[C@H](C)[C@@H](O)[C@]1(C)O,inactive; active
11,C/C=C/C=C/C=O,active
12,CN(C)C(=S)S[Se](SC(=S)N(C)C)(SC(=S)N(C)C)SC(=S)N(C)C,inactive
13,NC(Cc1c[nH]c2ccccc12)C(=O)O (stereo not given),inactive
14,C=C(C)[C@H]1CC=C(C)C(=O)C1,inactive; active
15,Nc1ccc(Oc2ccc(Cl)cc2)cc1,active
16,O=C1NCCN1/N=C/c1ccc([N+](=O)[O-])o1,active
17,Cc1cc(Cc2cc(C)cc(C(C)(C)C)c2O)c(O)c(C(C)(C)C)c1,inactive; active
18,Cc1ccc(C)c(OCCCC(C)(C)C(=O)O)c1,active; inactive
19,ClC1=C(Cl)[C@]2(Cl)[C@@H]3[C@H]4C=CC(C4)[C@@H]3C1(Cl)C2(Cl)Cl,active
20,CN(CCO)N=O,active
21,CCN(Cc1cccc(S(=O)(=O)O)c1)c1ccc(C(=C2C=CC(=[N+](CC)Cc3cccc(S(=O)(=O)O)c3)C=C2)c2ccccc2S(=O)(=O)[O-])cc1,inactive; active
22,CCC[N+](=O)[O-],inactive
23,O=P1(N(CCCl)CCCl)NCCCO1 (stereo not given),active
24,CC(=O)O[C@]1(C(C)=O)CC[C@H]2[C@@H]3C=C(Cl)C4=CC(=O)[C@@H]5C[C@@H]5[C@]4(C)[C@H]3CC[C@@]21C,active; inactive
25,CCOC(=O)N(CC)N=O,active; inactive
26,O=C(O)c1cc(=O)[nH]c(=O)[nH]1,inactive

# Source: PubChem BioAssay AID1189 (EPA DSSTox, 2008)
